Like-named read-outs stand apart in the source and are kept apart here.
What was measured:
[1] = target: T1, mouse albumin (Mus musculus, UniProt P07724); assay: Equilibrium dialysis binding to mouse albumin; conditions: pH 7.4, equilibrium dialysis, read-out: equilibrium dissociation constant (Kd)
T1 construct: purchased Sigma
Experimental: To determine whether albumin is the tasquinimod binding protein in plasma, albumin was removed from human plasma using an albumin depletion kit (Thermo Scientific cat # 85160). The albumin depleted plasma was then tested for its protein binding as described above. The dissociation constant (kd) for tasquinimod binding was determined based upon equilibrium dialysis of a mixture of 4mg/ml of the species (i.e., human, bovine, and mouse) specific albumin obtained from Sigma with 2μM of ^14C-labeled tasquinimod in PBS pH 7.4 buffer using a 96-well equilibrium dialyzer™ (Harvard Apparatus, Holliston,MA).

[2] = Protein binding fraction (PBF) in nude mouse plasma; type: in vitro ADME
Experimental: Mice were orally gavaged with ^14C-labeled tasquinimod at a dose of 5mg/kg and 1 hour later blood collected and plasma isolated and the PBF determined as described previously using Centrifree® YM-30 centrifuge filter unit with a molecular weight cutoff of 30K (i.e., Millipore, Billerica,MO).

[3] = Plasma pharmacokinetics after oral gavage in nude mice bearing CWR-22Rv1 xenografts; type: in vivo, mouse; conditions: for half-life: po, 5 mg/kg
Experimental: To determine the PK of tasquinimod, nude mice with growing (i.e., 200-400 mm^3) CWR-22Rv1 human prostate cancer xenografts were given ^14C-radiolabeled drug at a dose of 5 mg/kg via oral gavage and the plasma and tissue (i.e., liver, kidney, and tumor) drug concentration determined. Maximum tasquinimod plasma concentration is reached within 1 hour after oral gavage of mice, Figure 1C. After this absorption phase, the plasma concentration declines bi-exponentially as the sum of two first-order processes involving tissue distribution, with the plasma concentration remaining above 1 μM for at least 24 hours, Figure 1D. These PK results support a two-compartment model composed of a central and peripheral compartment. In the absorption phase, the apparent volume of distribution is low (i.e., 0.31 L/kg) but is still more than 3 times the total volume of the blood (i.e., 0.1 L/kg) and is equal to the extracellular body fluid (i.e. 0.2 L/kg) plus the total volume of blood in a mouse (i.e., […]).
Male nude mice bearing 200-300mm^3 CWR-22Rv1 cancers were given ^14C-labeled tasquinimod at a dose of 5 mg/kg via oral gavage. At times ranging from 30 min to 24 hour, groups of 4-6 mice were anaesthetized with ketamine and 1 ml of heparinized blood collected by cardiac puncture, followed by subsequent cardiac perfusion of saline to remove blood associated drug. An aliquot of liver, kidney, and cancer was removed, weighed and then homogenized. The radioactivity in 10 μL aliquots of tissue homogenates and blood plasma was determined using a liquid scintillation counter and used to calculate the total amount of tasquinimod plus its metabolites per gram of tissue or per ml of blood. The remaining sample volume was deproteinated with acetonitrile and the radioactivity of an aliquot of the supernatant determined and the remaining supernatant lyophilized, resuspended initially with 0.1mL dimethyl sulfoxide and diluted by the addition of 0.9mL deionized water prior to injection into the HPLC. The HPLC system consisted of Waters pumps using a Waters gradient controller to deliver mobile phase at a flow rate of 1mL per minute using a Supelcosil ABZ+ C18 column that is 150mm long by 4.6mm diameter and has 5μm particle size. The metabolites were separated using a linear gradient in which the starting mobile phase was 35% acetonitrile: 65% water: 0.1% Trifluoroacetic acid (TFA) increasing to 50% acetonitrile: 50% water: 0.1%TFA over 25 minutes, and then increased rapidly to 98% acetonitrile: 2% water: 0.1%TFA and held until 33 minutes before it is returned to the initial conditions for the next run. Fractions were collected and the radioactivity determined by scintillation counting. As controls, the individual elution time of non-radiolabeled standard solutions of the various tasquinimod metabolites was determined using UV absorption at 215nm. The results were expressed as concentration based upon tissue volume, assuming 1gram wet weight equals 1ml, or normalized to tissue vascular volume.

[4] = tested on: HUVEC cells; assay: In vitro cell metabolism in HUVEC; type: in vitro ADME, human; conditions: HUVEC, 1 μM, 48 hours
Experimental: The nuclear uptake results are consistent with tasquinimod being the active drug for both direct therapeutic effects on cancer cells and indirect effects via suppression of the angiogenic response of host endothelial cells. To confirm these conclusions, the concentration of tasquinimod metabolites produced by endothelial cells was compared to the potency of these metabolites for inhibiting angiogenesis. When HUVEC cells are exposed to 1 μM of ^14C-labeled tasquinimod for 48 hours, < 15% of the drug is metabolized with 10% (i.e., 100 nM) being converted to the quinoline-O-demethylated compound and < 2% (i.e., < 20 nM) being converted to the quinoline-N-demethylated or carboxamide-N-demethylated compounds.
(§1) For in vitro studies, cells were incubated with 1μM ^14C-labeled tasquinimod for indicated time period and then the media and cells or cell nuclei separately harvested, deproteinated with acetonitrile, and metabolites separated by HPLC and quantitated as described above.

[5] = tested on: HUVEC and CWR-22Rv1, LAPC-4, LNCaP cells; assay: In vitro cell metabolism in HUVEC and 3 prostate cancer cell lines; type: in vitro ADME, human; conditions: 48 hours, 1 μM, confluent cell density
Description: Since tasquinimod binds to both S100A9 and HDAC4 proteins with high affinities and since S100A9 has both an extracellular and intracellular location while HDAC4 in prostate cancer cells is in the cell nucleus, it is important to evaluate whether tasquinimod is capable of entering cells or whether it only associates with extracellular plasma membrane components. To resolve this question, an in vitro approach was taken using three human prostate cancer cells (i.e., CWR-22Rv1, LAPC-4, and LNCaP) and human umbilical vein endothelial (HUVEC) cells. When 1 μM tasquinimod is added to 10% fetal bovine serum (FBS) supplemented media, there is sufficient albumin to bind 80% of the drug so that the protein-free concentration of tasquinimod in such media is only 0.2 μM. Preliminary studies documented that even after 48 hours of exposure of HUVEC and each of the 3 prostate cancer cell lines to 1 μM at confluent cell density, there was < 15% metabolism of the parental tasquinimod drug with the major metabolite being the O-demethylated quinoline compound.
as §1

[6] = cited from earlier work
[7] = design: method as in PMID 16955399; conditions: adult male mice, 0.1-30 mg/kg via gavage or drinking water; cited from earlier work

T1 sequence (P07724 25-608): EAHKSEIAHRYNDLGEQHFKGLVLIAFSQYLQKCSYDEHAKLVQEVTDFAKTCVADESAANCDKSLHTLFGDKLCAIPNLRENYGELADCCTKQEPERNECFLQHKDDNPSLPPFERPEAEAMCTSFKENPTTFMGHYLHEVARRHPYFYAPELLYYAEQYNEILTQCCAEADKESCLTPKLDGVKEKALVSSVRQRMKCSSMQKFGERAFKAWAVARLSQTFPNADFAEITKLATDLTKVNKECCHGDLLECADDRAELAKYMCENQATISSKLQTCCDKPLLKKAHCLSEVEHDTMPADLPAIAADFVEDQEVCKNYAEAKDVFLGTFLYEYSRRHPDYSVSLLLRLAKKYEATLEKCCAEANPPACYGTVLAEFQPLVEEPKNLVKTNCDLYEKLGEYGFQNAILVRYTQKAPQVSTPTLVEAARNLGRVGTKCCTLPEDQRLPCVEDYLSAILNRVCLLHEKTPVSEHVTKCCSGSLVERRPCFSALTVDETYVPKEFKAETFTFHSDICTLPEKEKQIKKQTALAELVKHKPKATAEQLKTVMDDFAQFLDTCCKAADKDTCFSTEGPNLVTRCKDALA

Kd [1]: 16 ± 3 µM | plasma tasquinimod that is albumin bound [2]: 98% | total plasma tasquinimod that is non-protein bound ([2]; following oral dosing): ~ 2% | fraction unbound at 1 h ([2]; oral, 5 mg/kg, nude mouse plasma): 0.02 | Cmax for protein free-tasquinimod ([3]; 5 mg/kg oral): ~ 0.24 μM | time plasma concentration remains above 1 μM ([3]; 5 mg/kg oral gavage, nude mice): at least 24 hours | increase in plasma elimination half-life on ketoconazole co-treatment ([3]; 5 mg/kg oral tasquinimod with ketoconazole 25mg/kg/day oral): more than 8 fold | apparent volume of distribution ([3]; absorption phase, 5 mg/kg oral): 0.31 L/kg | fraction of blood drug located in the plasma and not in blood cells ([3]; fractionated whole blood, 4hours post oral dosing): > 98% | Tmax ([3]; male, mouse, plasma, 5 mg/kg oral gavage, nude mice, read-out: time to maximum plasma concentration): ≤ 1 h | half-life ([3]; male, nude, mouse, plasma, 5 mg/kg oral, read-out: half-life of α-distribution phase (converted)): 192 min | half-life ([3]; male, nude, mouse, plasma, 5 mg/kg oral, read-out: β-elimination phase half-life): > 600 min | Cmax ([3]; male, nude, mouse, plasma, 5 mg/kg oral, read-out: total plasma Cmax): ~12 µM | drug metabolized [4]: < 15% | metabolism of the parental drug [5]: < 15%
Structure (SMILES): COc1cccc2c1c(O)c(C(=O)N(C)c1ccc(C(F)(F)F)cc1)c(=O)n2C [Tasquinimod]
blood (plasma) level maintained ([6]; chronic daily oral dosing, 1 mg (0.5-1 mg/day), clinical trials): ~ 0.5 μM | plasma half-life ([6]; clinical trials): 40 ± 16 h | plasma levels at which systemic anti-cancer potency occurs ([6]; clinical trials): 0.5 to 1 µM | bioavailability and oral absorption ([6]; daily dose as liquid or gelatin capsule): excellent | bioavailability and oral absorption [7]: excellent

Source: publication PMC4226669, “Anti-cancer potency of tasquinimod is enhanced via albumin-binding facilitating increased uptake in the tumor microenvironment” (Oncotarget, 2014)
